Experimental findings from US9572315B2, “ALS inhibitor herbicide tolerant B. napus mutants” (BAYER INTELLECTUAL PROPERTY GMBH, priority 2011, dated 2017) are described below.

Experiment [1] deals with B. napus mutant FM 202 (ALS I A190V, ALS III W556L). Description: ALS-inhibitor herbicide injury on B. napus, greenhouse spray trial, visual scoring. The class given is in vivo, Brassica napus. The method, then:
(§1) The individual components herbicide and surfactant with regard to type and application rate as stated in table I were added with stirring to a water application rate of 300 l/ha so that a homogeneous spray mixture was formed.
(§2) Seeds of B. napus were sown in a sandy loam soil and placed in a climate chamber in a greenhouse under good growth conditions (16 h light, temperature day 14° C., night: 8° C.). The plants were grown up to growth stage of BBCH 12 to BBCH 13. […] After the treatment, the plants were returned to the climate chamber.
(§3) Visual scoring was carried out using a percentage scale of 0%=no damage to 100%=all plants dead.

Experiment [2] deals with B. napus wild type line SR002201 (NCIMB 41813). The description is as above. The class given is in vivo, Brassica napus. The method, then: as §1, §2, §3
Experiment [3] deals with B. napus plants of the present invention. Description: Sensitivity to ALS inhibitor herbicide compared to wild type. The arrangement: species or system Brassica napus. As to conditions: B. napus plant described in the Examples vs wild type.
The test system of experiment [4] is plants regenerated from the clone FM202. Description: Growth of regenerated plants in presence of herbicide. It is filed as cell-based, Brassica napus. To be noted: high concentration of ALS inhibitor (selection at 10^−4 M).
[5] abbreviates: Brassica napus, 336 h, 30 g a.i./ha, spray at BBCH 12-13 with Mero 1 l/ha, visual scoring 14 days after application, 0%=no damage, 100%=all plants dead.
Where [6] appears, read: 30 g a.i./ha, spray at BBCH 12-13 with Mero 1 l/ha, visual scoring 14 days after application, 0%=no damage, 100%=all plants dead.
Where [7] appears, read: 20 g a.i./ha, spray at BBCH 12-13 with Mero 1 l/ha, visual scoring 14 days after application, 0%=no damage, 100%=all plants dead.
[8] abbreviates: Brassica napus, 336 h, 35 g a.i./ha, spray at BBCH 12-13 with Mero 1 l/ha, visual scoring 14 days after application, 0%=no damage, 100%=all plants dead.
Setting [9] is: 15 g a.i./ha, spray at BBCH 12-13 with Mero 1 l/ha, visual scoring 14 days after application, 0%=no damage, 100%=all plants dead.
The mark [10] stands for this setting: Brassica napus, 336 h, 7 g a.i./ha, spray at BBCH 12-13 with Mero 1 l/ha, visual scoring 14 days after application, 0%=no damage, 100%=all plants dead.

Regarding `COc1cc(OC)nc(NC(=O)NS(=O)(=O)N(C)S(C)(=O)=O)n1` [Amidosulfuron], the pest or weed control at 30 g/ha in experiment [1] (setting [5]) worked out at 0%; in experiment [2] (setting [5]), 93%. In the case of `COc1nc(C)nc(NC(=O)NS(=O)(=O)c2ccccc2Cl)n1` [Chlorsulfuron], in experiment [1] (9 g a.i./ha, spray at BBCH 12-13 with Mero 1 l/ha, visual scoring 14 days after application, 0%=no damage, 100%=all plants dead), the “Herbicide injury on B. napus FM 202” value was 0%. For `COCc1cnc(C2=NC(C)(C(C)C)C(=O)N2)c(C(=O)O)c1` (stereo not drawn) [Imazamox], the “Herbicide injury on B. napus FM 202” value in experiment [1] (40 g a.i./ha, spray at BBCH 12-13 with Mero 1 l/ha, visual scoring 14 days after application, 0%=no damage, 100%=all plants dead) turned out to be 0%.

On to `COc1nc(C)nc(=NC(=O)NS(=O)(=O)c2ccccc2C(=O)O)[nH]1` [Metsulfuron], for which the pest or weed control at 8 g/ha is 0% in experiment [1] (Brassica napus, 336 h, read-out: Herbicide injury on B. napus FM 202) and 93% in experiment [2] (Brassica napus, 336 h, read-out: Herbicide injury on B. napus SR002201).

Take `COc1nc(C)nc(N(C)C(=O)NS(=O)(=O)c2ccccc2C(=O)O)n1` [Tribenuron]: in experiment [1] (setting [6]), the “Herbicide injury on B. napus FM 202” value was 3%. Besides, the “Herbicide injury on B. napus SR002201” value in experiment [2] (setting [6]) turned out to be 95%. On to `Cc1cccc(C(=O)O)c1S(=O)(=O)NC(=O)Nc1nc(OCC(F)(F)F)nc(N(C)C)n1` [Triflusulfuron], for which the “Herbicide injury on B. napus FM 202” value in experiment [1] (setting [7]) is given as 0%. The “Herbicide injury on B. napus SR002201” value in experiment [2] (setting [7]) was found to be 65%. With `COc1nn(C(=O)NS(=O)(=O)c2c(C(=O)O)csc2C)c(=O)n1C` [Thiencarbazone], the “Herbicide injury on B. napus FM 202” value in experiment [1] (setting [7]) was 0%. Besides, the “Herbicide injury on B. napus SR002201” value in experiment [2] (setting [7]) is reported as 90%. Regarding `COc1cc(OC)nc(NC(=O)NS(=O)(=O)c2cc(NC=O)ccc2C(=O)N(C)C)n1` [Foramsulfuron], the pest or weed control at 35 g/ha in experiment [1] (setting [8]) was found to be 0%; in experiment [2] (setting [8]) it was 75%. The “times less sensitive to the ALS inhibitor herbicide compared to the wild type enzyme” value in experiment [3] was “at least 1000 times”. Consider `COc1cc(OC)nc(NC(=O)NS(=O)(=O)c2cc(CNS(C)(=O)=O)ccc2C(=O)O)n1` [Mesosulfuron], for which, in experiment [1] (setting [9]), the “Herbicide injury on B. napus FM 202” value turned out to be 0%. Besides, the “Herbicide injury on B. napus SR002201” value in experiment [2] (setting [9]) was 90%.

As to `COc1nc(C)nc(NC(=O)NS(=O)(=O)c2cc(I)ccc2C(=O)O)n1` [Iodosulfuron], the pest or weed control at 7 g/ha in experiment [1] (setting [10]) came out at 0%; in experiment [2] (setting [10]) it was 95%. In the case of `COc1cc(OC)nc(NC(=O)[N-]S(=O)(=O)c2ncccc2C2=NOCCO2)n1.[Na+]` [Compound of formula (I)], the “growth of plants regenerated from clone FM202 in presence of the ALS inhibitor” value in experiment [4] is on record as “able to grow”. With `CCOc1ccccc1OS(=O)(=O)NC(=O)Nc1nc(OC)cc(OC)n1` [Ethoxysulfuron], the “Herbicide injury on B. napus FM 202” value in experiment [1] (60 g a.i./ha, spray at BBCH 12-13 with Mero 1 l/ha, visual scoring 14 days after application, 0%=no damage, 100%=all plants dead) came to 0%.
